Experiments:
Type in all cases: cell-based, human
HTCFs [1] = test: Cytotoxicity assay, in situ fluorescence-based LIVE/DEAD (fluorescein diacetate/propidium iodide)
Procedure: To assess the relative cellular viability between different experimental conditions, an in situ fluorescence-based LIVE/DEAD assay was used. This is a well reported method for estimating the cytotoxicity of an intervention. In brief, two florescent dyes, fluorescein diacetate and propidium iodide, are added to the culture media surrounding the collagen constructs. Fluorescein diacetate is converted into a […] fluorescent molecule by esterases within living cells. Propidium iodide (red) cannot pass through a viable cell's membrane, however it can penetrate disordered areas of dead cell membranes and then intercalates with the nuclear DNA. After a 5 min incubation with the staining solution, collagen constructs were washed with PBS and immediately imaged on a laser-scanning confocal microscope (A1R HD Nikon Instruments Inc., Tokyo, Japan). Ten random frames were taken with the 20× objective per tissue section, with three tissue sections imaged per patient cell line and treatment group. The laser intensity settings were kept consistent between samples to facilitate consistent comparison between replicates.
Using ImageJ, blue signals were counted within every frame and counted as living cells. The same was done for red signals, and these were counted as dead cells. The ratio of living (blue) to total (blue+red) cells was recorded.

αSMA = test: Western blot of HTCF protein lysate, αSMA
Procedure: (§1) Cells were lysed in lysis buffer (PhosphoSafe Extraction Reagent, Novagen) containing a protease inhibitor cocktail (P2714, Sigma-Aldrich). Crude protein lysate was quantified using a Pierce BCA protein assay kit (ThermoFisher, Mississauga, ON) and 10 ug from each sample was resolved using a Novex WedgeWell 4-20% tris-glycine gel (Invitrogen). Using an iBlot Gel Transfer Device (IB1001, Invitrogen), the separated protein was transferred to a nitrocellulose membrane (1B301001, iBlot Transfer Stack, Invitrogen) which was then blocked with 5% (w/v) bovine serum albumin (Sigma-Aldrich) in Tris buffered saline (TBST) for 1 hour at room temperature. The membranes were incubated overnight at 4° C. with primary antibody diluted in TBST containing 5% BSA (w/vol). […] Visualization was accomplished by applying WesternBright Quantum chemiluminescent reagent (Advansta, Inc.), with GAPDH used as a protein loading control. Imaging and relative densiometric quantification was accomplished using a ChemiDoc MP System (Bio-Rad Laboratories, Inc.) connected to Image Lab (Version 6, Bio-Rad Laboratories, Inc.).

collagen 1 = test: Western blot of HTCF protein lysate, collagen 1; settings: ASA 500 or 1000 μg/ml, APHS 12 μg/ml, with or without gentamicin 250 or 500 μg/ml, 48 hrs
Procedure: as §1

HTCFs [2] = test: Lipid Mediator Secretion Assay I (ASA with and without melittin, LC-MS/MS); settings: ASA 200 μg/ml
Procedure: The aim of this experiment was to assess the relative secretion of COX2 vs. acetylated-COX2 products from HTCFs after an inflammatory stimulus followed by exposure to ASA with and without an extremely potent PLA2 agonist—melittin. To this end, multiple primary HTCF cell lines were cultured in DMEM w/10% FBS in 6-well culture plates, incubated at 37 C and 5% CO2, until 90% confluent. The culture media was removed, wells washed with PBS, and then fresh DMEM w/0% FBS was added. After 24 hrs of serum starvation, fresh DMEM w/0% FBS was added, this time containing a physiologically relevant inflammation/wound healing induction mixture (1 ng/ml each of: IL-1b, TNFa, IFNγ, TGFb). After 12 hrs incubation, the induction media was removed, the wells were washed with PBS and fresh DMEM w/0% FBS was added containing one of three experimental treatments for an incubation period of 24 hrs: 1) vehicle control (DMEM w/0% FBS), and 2) ASA 200 (DMEM w/0% FBS and 200 μg/ml ASA), and 3) ASA/Mel. (DMEM w/0% FBS, 200 μg/ml ASA and 10 μg/ml of melittin, a potent PLA2 agonist). At 6, 12 and 24 hrs after addition of the experimental treatments, 250 ul of supernatant was removed from each well, replaced with 250 ul of fresh DMEM w/0% FBS, and stored at −80° C. for subsequent LC-MS/MS analysis. After 24 hrs, the wells were washed with ice cold PBS three times and total cellular protein from the HTCF monolayer was collected for quantification and subsequent western blot analyses. The absolute quantity of protein within each culture well's HTCF monolayer was used as a means to standardize the relative secretion of lipid mediators by HTCFs into the culture well's supernatant.
Relative quantification of secreted lipid mediators was achieved using liquid chromatography tandem mass spectrometry combined with the addition of a known quantity of deuterated versions of the lipid mediators to each sample as internal standards (Item Numbers: #10007737, #320110, #314010, #11182, #315210, #319030, #390030, #10006410, #10006199, #334230, and #10008040, Cayman Chemical). This is a well-established method to determine the relative activity of cyclooxygenase, acetyl-COX2 and lipoxygenase biosynthetic pathways. In brief, the ratios of the integrated areas of the chromatographic peaks corresponding to each analyte and the integrated areas of the peaks corresponding to each analyte's internal standard (with known absolute quantity) are used to determine the relative quantity of each analyte in a given sample. […] The chromatographic profile of the ion count for each m/z transition was monitored, and the area under the peaks (ion intensity vs elution time) was integrated using commercial software (MultiQuant, Sciex).

[3] = ASA 500 or 1000 μg/ml, APHS 12 μg/ml, with or without gentamicin 250 or 500 μg/ml, 48 hrs (FIG. 17B)
[4] = alone or with melittin 10 μg/ml, vs vehicle control

Compound | relative proportion of living to total cells (HTCFs [1]; AHGFs, APHS 24 μg/ml, alone or with gentamicin 750 μg/ml) | AHGF-induced expression of αSMA (αSMA; [3]) | AHGF-induced expression of collagen 1 (collagen 1) | relative amount of COX2 products relative to inf. cytokines control (HTCFs [2]) | relative secretion of precursor PUFAs (AA, DHA and EPA) (HTCFs [2]; alone or with melittin 10 μg/ml, supernatant at 6, 12, 24 hrs) | relative secretion of acetylated-COX2 products (HTCFs [2]; [4]) | secretion of COX2 products (HTCFs [2]; [4]) | relative proportion of living to total cells (HTCFs [1]; AHGFs, ASA 1500 μg/ml, with or without gentamicin 750 μg/ml, mitomycin C 0.2 mg/ml for 1, 2 or 4 minutes) | relative proportion of living to total cells (HTCFs [1]; Collagen Contraction Assay III conditions, ASA 1000 or 1500 μg/ml, with or without gentamicin, four days) | AHGF-induced expression of αSMA (αSMA; ASA 100, 400, 1600 μg/ml, 48 hrs (FIG. 16))
CCCCC#CCSc1ccccc1OC(C)=O [APHS, o-(acetoxyphenyl)hept-2-ynyl sulfide] | unchanged relative to the AHGFs control group | significantly reduced | significantly reduced |  |  |  |  |  |  | 
CC(=O)Oc1ccccc1C(=O)O [ASA, acetylsalicylic acid] |  | significantly reduced | significantly reduced | decrease the relative amount of COX2 products relative to inf. cytokines control | no significant increase in relative secretion of precursor PUFAs | no significant increase in the relative secretion of acetylated-COX2 products | decrease the secretion of COX2 products relative to vehicle control; however this effect was not statistically significant | unchanged relative to vehicle control | unchanged relative to vehicle control | significantly impaired the AHGF-induced expression of αSMA

Source: patent US20210196731A1, “COMPOSITIONS AND METHODS FOR TREATING OCULAR INFLAMMATION AND OCULAR SCARRING” (priority 2018, published 2021)
